Measurements reported in patent publication US10168342B2, “Lipid probes and uses thereof” (THE SCRIPPS RESEARCH INSTITUTE, priority 2015, dated 2019).
Where two headings read alike, the source gives them in different places.

What was measured:
[1] = molecular target: AEA-DA lipid probe targets in Neuro2a cells (Mus musculus, UniProt G5E895); settings: competitor 25 μM
[2] = molecular target: AEA-DA lipid probe targets in Neuro2a cells (Mus musculus, UniProt P15331)
[3] = molecular target: T1, AEA-DA lipid probe targets in Neuro2a cells (Mus musculus, UniProt P17439)
T1 sequence (P17439 20-515): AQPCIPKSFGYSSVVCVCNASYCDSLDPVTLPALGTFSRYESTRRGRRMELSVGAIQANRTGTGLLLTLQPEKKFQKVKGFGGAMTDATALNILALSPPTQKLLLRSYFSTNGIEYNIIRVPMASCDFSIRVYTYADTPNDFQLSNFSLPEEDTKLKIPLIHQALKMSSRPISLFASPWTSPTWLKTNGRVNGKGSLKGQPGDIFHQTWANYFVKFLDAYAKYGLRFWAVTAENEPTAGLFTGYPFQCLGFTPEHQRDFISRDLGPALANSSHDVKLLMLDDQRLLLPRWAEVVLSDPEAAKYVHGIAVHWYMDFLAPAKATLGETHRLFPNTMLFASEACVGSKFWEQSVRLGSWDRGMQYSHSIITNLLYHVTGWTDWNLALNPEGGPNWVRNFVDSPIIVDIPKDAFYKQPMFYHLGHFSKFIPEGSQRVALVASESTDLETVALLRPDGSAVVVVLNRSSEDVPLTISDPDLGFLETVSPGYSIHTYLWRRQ

[4] = molecular target: T2, AEA-DA lipid probe targets in Neuro2a cells (Mus musculus, UniProt P32037)
T2 sequence (P32037 1-493): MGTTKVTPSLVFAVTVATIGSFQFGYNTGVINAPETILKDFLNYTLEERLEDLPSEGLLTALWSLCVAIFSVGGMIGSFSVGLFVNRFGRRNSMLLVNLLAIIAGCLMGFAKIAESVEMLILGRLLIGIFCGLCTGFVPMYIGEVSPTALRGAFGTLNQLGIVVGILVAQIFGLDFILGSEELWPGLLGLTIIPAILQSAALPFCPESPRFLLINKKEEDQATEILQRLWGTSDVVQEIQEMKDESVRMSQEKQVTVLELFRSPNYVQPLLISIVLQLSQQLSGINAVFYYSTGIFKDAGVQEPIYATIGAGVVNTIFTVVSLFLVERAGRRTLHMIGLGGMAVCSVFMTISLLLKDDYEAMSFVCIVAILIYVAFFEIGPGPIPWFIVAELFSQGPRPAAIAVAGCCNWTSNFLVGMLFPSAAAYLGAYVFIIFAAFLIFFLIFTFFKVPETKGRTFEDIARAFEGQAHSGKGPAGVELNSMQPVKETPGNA

[5] = molecular target: T3, AEA-DA lipid probe targets in Neuro2a cells (Mus musculus, UniProt P48678)
T3 sequence (P48678 1-665): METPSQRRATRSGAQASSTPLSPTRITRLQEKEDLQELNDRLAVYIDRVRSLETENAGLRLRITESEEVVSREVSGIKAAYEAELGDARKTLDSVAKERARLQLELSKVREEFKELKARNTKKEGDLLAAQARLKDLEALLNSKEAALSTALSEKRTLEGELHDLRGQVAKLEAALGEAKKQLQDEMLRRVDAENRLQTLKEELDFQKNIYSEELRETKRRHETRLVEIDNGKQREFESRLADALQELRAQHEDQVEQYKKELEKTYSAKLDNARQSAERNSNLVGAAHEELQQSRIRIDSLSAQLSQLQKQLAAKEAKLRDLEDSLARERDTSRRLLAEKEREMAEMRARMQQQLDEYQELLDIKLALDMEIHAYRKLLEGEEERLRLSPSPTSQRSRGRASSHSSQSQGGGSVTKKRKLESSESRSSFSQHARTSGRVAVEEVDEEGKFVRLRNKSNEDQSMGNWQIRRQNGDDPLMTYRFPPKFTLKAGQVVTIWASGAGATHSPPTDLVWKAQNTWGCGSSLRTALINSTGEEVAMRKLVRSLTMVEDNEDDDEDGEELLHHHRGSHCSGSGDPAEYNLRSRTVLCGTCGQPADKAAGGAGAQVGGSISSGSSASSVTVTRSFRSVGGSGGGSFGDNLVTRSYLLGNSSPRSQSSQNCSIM

[6] = molecular target: AEA-DA lipid probe targets in Neuro2a cells (Mus musculus, UniProt P52293)
[7] = molecular target: AEA-DA lipid probe targets in Neuro2a cells (Mus musculus, UniProt P62814)
[8] = molecular target: T4, AEA-DA lipid probe targets in Neuro2a cells (Mus musculus, UniProt Q8BTV1)
T4 sequence (Q8BTV1 42-347): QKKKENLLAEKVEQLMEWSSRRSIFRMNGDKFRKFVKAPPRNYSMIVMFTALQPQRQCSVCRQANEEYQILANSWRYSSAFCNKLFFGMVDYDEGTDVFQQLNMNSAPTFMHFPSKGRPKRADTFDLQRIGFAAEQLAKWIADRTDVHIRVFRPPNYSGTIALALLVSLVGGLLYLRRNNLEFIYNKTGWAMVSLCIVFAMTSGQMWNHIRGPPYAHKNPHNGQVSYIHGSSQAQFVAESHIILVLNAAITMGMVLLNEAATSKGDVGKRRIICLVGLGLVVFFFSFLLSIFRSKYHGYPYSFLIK

[9] = molecular target: AEA-DA lipid probe targets in Neuro2a cells (Mus musculus, UniProt Q8VE88)
[10] = molecular target: T5, AEA-DA lipid probe targets in Neuro2a cells (Mus musculus, UniProt Q9QY93)
T5 sequence (Q9QY93 1-170): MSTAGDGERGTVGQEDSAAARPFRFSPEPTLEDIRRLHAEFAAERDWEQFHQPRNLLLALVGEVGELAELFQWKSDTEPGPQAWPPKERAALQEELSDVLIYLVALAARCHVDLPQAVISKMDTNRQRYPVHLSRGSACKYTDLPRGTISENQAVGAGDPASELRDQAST

AEA-DA lipid probe targets in Neuro2a cells (Mus musculus, UniProt P15331), sequence (P15331 whole entry): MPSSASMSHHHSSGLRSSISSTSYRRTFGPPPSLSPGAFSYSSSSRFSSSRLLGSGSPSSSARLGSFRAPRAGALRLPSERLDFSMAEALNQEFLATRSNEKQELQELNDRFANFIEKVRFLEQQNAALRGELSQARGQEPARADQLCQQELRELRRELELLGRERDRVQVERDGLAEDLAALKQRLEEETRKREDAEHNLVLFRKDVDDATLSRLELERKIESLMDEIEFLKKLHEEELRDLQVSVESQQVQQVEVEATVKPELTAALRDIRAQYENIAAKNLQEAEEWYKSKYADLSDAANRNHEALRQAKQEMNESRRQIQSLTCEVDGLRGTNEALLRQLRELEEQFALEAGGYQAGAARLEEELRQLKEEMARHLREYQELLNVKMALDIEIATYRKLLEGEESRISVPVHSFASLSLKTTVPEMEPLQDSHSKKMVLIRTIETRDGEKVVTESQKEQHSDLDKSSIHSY
AEA-DA lipid probe targets in Neuro2a cells (Mus musculus, UniProt P62814), sequence (P62814 whole entry): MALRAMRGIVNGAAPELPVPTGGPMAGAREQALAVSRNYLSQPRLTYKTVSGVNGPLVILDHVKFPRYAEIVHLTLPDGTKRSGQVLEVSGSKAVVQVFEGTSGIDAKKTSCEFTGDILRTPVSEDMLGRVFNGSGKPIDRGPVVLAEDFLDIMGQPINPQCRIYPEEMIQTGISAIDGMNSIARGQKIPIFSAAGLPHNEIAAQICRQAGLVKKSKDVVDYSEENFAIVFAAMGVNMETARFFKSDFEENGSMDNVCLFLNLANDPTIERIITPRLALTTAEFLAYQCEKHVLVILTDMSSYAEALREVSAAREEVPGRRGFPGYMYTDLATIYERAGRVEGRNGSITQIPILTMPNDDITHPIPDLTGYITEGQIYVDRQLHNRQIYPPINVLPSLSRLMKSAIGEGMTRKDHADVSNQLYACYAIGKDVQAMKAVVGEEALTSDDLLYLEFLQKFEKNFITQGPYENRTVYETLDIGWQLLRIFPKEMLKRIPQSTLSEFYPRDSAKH
AEA-DA lipid probe targets in Neuro2a cells (Mus musculus, UniProt G5E895), sequence (G5E895 1-316): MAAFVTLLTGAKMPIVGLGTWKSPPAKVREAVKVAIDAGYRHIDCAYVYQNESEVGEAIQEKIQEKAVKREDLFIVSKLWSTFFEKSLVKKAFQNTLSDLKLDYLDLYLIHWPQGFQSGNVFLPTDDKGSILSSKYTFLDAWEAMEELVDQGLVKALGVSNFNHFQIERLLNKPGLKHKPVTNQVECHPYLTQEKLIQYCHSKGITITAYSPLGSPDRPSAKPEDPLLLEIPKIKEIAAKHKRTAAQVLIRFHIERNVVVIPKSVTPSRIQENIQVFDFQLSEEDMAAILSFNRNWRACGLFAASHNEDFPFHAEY
AEA-DA lipid probe targets in Neuro2a cells (Mus musculus, UniProt Q8VE88), sequence (Q8VE88 whole entry): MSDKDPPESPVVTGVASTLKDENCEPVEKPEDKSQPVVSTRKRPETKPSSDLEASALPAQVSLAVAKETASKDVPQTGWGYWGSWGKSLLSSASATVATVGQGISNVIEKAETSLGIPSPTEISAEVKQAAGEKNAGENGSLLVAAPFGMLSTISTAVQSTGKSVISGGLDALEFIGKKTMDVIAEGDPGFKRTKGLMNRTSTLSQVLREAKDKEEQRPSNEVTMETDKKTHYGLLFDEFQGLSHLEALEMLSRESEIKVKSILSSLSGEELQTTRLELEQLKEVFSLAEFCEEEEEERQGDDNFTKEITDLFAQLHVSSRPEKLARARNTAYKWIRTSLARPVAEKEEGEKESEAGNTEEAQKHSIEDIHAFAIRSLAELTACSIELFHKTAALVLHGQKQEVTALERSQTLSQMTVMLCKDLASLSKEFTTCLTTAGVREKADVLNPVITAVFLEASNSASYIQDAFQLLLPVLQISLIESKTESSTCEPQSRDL

**Q.** With `O=C(/C=C/c1cccnc1)NCCCCC1CCN(C(=O)c2ccccc2)CC1` [FK-866, reference compound] as the molecule, how does the “SILAC ratio, Akr1b10” value [1] read?
**A.** Its value is 1.9.

**Q.** What about the “SILAC ratio Prph” value ([2]; competitor 25 μM) of the same molecule?
**A.** The value was 1.2.

**Q.** And the “SILAC ratio Gba” value ([3]; competitor 25 μM)?
**A.** The value was 1.0.

**Q.** And the “SILAC ratio, Slc2a3” value ([4]; competitor 25 μM)?
**A.** Its value is 1.1.

**Q.** What about the “SILAC ratio Lmna” value ([5]; competitor 25 μM) of the same molecule?
**A.** The value was 1.2.

**Q.** What about the “SILAC ratio Kpna2” value ([6]; competitor 25 μM) of the same molecule?
**A.** The value was 1.2.

**Q.** And the “SILAC ratio Atp6v1b2” value ([7]; competitor 25 μM)?
**A.** Its value is 1.6.

**Q.** What about the “SILAC ratio, Tusc3” value ([8]; competitor 25 μM) of the same molecule?
**A.** Its value is 1.3.

**Q.** What about the “SILAC ratio, Fam114a2” value ([9]; competitor 25 μM) of the same molecule?
**A.** The value was 1.0.

**Q.** And the “SILAC ratio Dctpp1” value ([10]; competitor 25 μM)?
**A.** Its value is 1.4.

**Q.** Which “SILAC ratio Prph” value ([2]; competitor 200 μM) does the source give for `CCCCC/C=C\C/C=C\C/C=C\C/C=C\CCCC(=O)NCCO` [AEA, anandamide, reference compound] here?
**A.** The value was 1.0.

**Q.** What about the “SILAC ratio Gba” value ([3]; competitor 200 μM) of the same molecule?
**A.** The value was 1.5.

**Q.** What about the “SILAC ratio, Slc2a3” value ([4]; competitor 200 μM) of the same molecule?
**A.** Its value is 1.0.

**Q.** And the “SILAC ratio Lmna” value ([5]; competitor 200 μM)?
**A.** The value was 1.1.

**Q.** What about the “SILAC ratio Kpna2” value ([6]; competitor 200 μM) of the same molecule?
**A.** Its value is 1.5.

**Q.** And the “SILAC ratio Atp6v1b2” value ([7]; competitor 200 μM)?
**A.** The value was 1.1.

**Q.** And the “SILAC ratio, Tusc3” value ([8]; competitor 200 μM)?
**A.** The value was 1.7.

**Q.** What about the “SILAC ratio, Fam114a2” value ([9]; competitor 200 μM) of the same molecule?
**A.** The value was 1.4.

**Q.** And the “SILAC ratio Dctpp1” value ([10]; competitor 200 μM)?
**A.** The value was 1.5.

**Q.** What does the source list for `CN1CCN(C(=O)c2c(-c3ccccc3)c3cc([N+](=O)[O-])ccc3n2C)CC1` [KML110, (1-Methyl-5-nitro-3-phenyl-1H-indol-2-yl)(4-methylpiperazin-1-yl)methanone]?
**A.** SILAC ratio, Akr1b10 [1]: 3.9; SILAC ratio Prph ([2]; competitor 25 μM): 1.1; SILAC ratio Gba ([3]; competitor 25 μM): 2.4; SILAC ratio, Slc2a3 ([4]; competitor 25 μM): 1.2; SILAC ratio Lmna ([5]; competitor 25 μM): 1.3; SILAC ratio Kpna2 ([6]; competitor 25 μM): 1.2; SILAC ratio Atp6v1b2 ([7]; competitor 25 μM): 1.2; SILAC ratio, Tusc3 ([8]; competitor 25 μM): 1.6; SILAC ratio, Fam114a2 ([9]; competitor 25 μM): 2.2; SILAC ratio Dctpp1 ([10]; competitor 25 μM): 1.6

**Q.** How did the “SILAC ratio, Akr1b10” value [1] turn out when `C=CCN(C)CCCCCCOc1ccc(C(=O)c2ccc(Br)cc2)c(F)c1` [Ro 48-8071, reference compound] was run?
**A.** Its value is 1.5.

**Q.** What about the “SILAC ratio Prph” value ([2]; competitor 25 μM) of the same molecule?
**A.** Its value is 0.8.

**Q.** What about the “SILAC ratio Gba” value ([3]; competitor 25 μM) of the same molecule?
**A.** Its value is 0.7.

**Q.** What about the “SILAC ratio, Slc2a3” value ([4]; competitor 25 μM) of the same molecule?
**A.** The value was 1.0.

**Q.** And the “SILAC ratio Lmna” value ([5]; competitor 25 μM)?
**A.** Its value is 1.1.

**Q.** What about the “SILAC ratio Kpna2” value ([6]; competitor 25 μM) of the same molecule?
**A.** The value was 0.9.

**Q.** What about the “SILAC ratio Atp6v1b2” value ([7]; competitor 25 μM) of the same molecule?
**A.** Its value is 0.6.

**Q.** What about the “SILAC ratio, Tusc3” value ([8]; competitor 25 μM) of the same molecule?
**A.** The value was 1.2.

**Q.** What about the “SILAC ratio, Fam114a2” value ([9]; competitor 25 μM) of the same molecule?
**A.** The value was 1.6.

**Q.** And the “SILAC ratio Dctpp1” value ([10]; competitor 25 μM)?
**A.** Its value is 0.8.

**Q.** What does the source list for `CN1CCN(C(=O)c2[nH]c3ccc([N+](=O)[O-])cc3c2-c2ccccc2)CC1` [MJN228, (4-Methylpiperazin-1-yl)(5-nitro-3-phenyl-1H-indol-2-yl)methanone]?
**A.** SILAC ratio, Akr1b10 [1]: 2.8; SILAC ratio Prph ([2]; competitor 10 μM): 1.0; SILAC ratio Prph ([2]; competitor 25 μM): 1.2; SILAC ratio Prph ([2]; competitor 50 μM): 0.7; SILAC ratio Prph ([2]; competitor 100 μM): 0.9; SILAC ratio Gba ([3]; competitor 10 μM): 2.2; SILAC ratio, Slc2a3 ([4]; competitor 10 μM): 1.2; SILAC ratio, Slc2a3 ([4]; competitor 25 μM): 1.4; SILAC ratio, Slc2a3 ([4]; competitor 50 μM): 1.2; SILAC ratio, Slc2a3 ([4]; competitor 100 μM): 1.2; SILAC ratio Lmna ([5]; competitor 10 μM): 1.3; SILAC ratio Lmna ([5]; competitor 25 μM): 1.1; SILAC ratio Lmna ([5]; competitor 50 μM): 1.3; SILAC ratio Lmna ([5]; competitor 100 μM): 1.5; SILAC ratio Kpna2 ([6]; competitor 10 μM): 1.3; SILAC ratio Kpna2 ([6]; competitor 25 μM): 1.2; SILAC ratio Kpna2 ([6]; competitor 50 μM): 0.9; SILAC ratio Kpna2 ([6]; competitor 100 μM): 1.3; SILAC ratio Atp6v1b2 ([7]; competitor 10 μM): 1.2; SILAC ratio Atp6v1b2 ([7]; competitor 25 μM): 1.1; SILAC ratio Atp6v1b2 ([7]; competitor 50 μM): 0.9; SILAC ratio, Tusc3 ([8]; competitor 10 μM): 1.2; SILAC ratio, Tusc3 ([8]; competitor 25 μM): 1.6; SILAC ratio, Tusc3 ([8]; competitor 50 μM): 1.6; SILAC ratio, Tusc3 ([8]; competitor 100 μM): 2.6; SILAC ratio, Fam114a2 ([9]; competitor 10 μM): 1.6; SILAC ratio, Fam114a2 ([9]; competitor 25 μM): 3.5; SILAC ratio, Fam114a2 ([9]; competitor 50 μM): 4.1; SILAC ratio, Fam114a2 ([9]; competitor 100 μM): 7.6; SILAC ratio Dctpp1 ([10]; competitor 25 μM): 1.2; SILAC ratio Dctpp1 ([10]; competitor 50 μM): 1.0; SILAC ratio Dctpp1 ([10]; competitor 100 μM): 1.0
